From patent US5545547A, “Enzymes as agricultural chemical adjuvants” (priority 1992, dated 1996)

What was measured:
Format in all cases: in vivo
[1] = system: Beefsteak Tomato seedlings; experiment: HYVAR uptake by whole plants, effect of macerating enzymes (GC219); parameters: key: -=No phytotoxicity; +=Some phytotoxicity seen in area of treatment.; ++=Phytotoxicity seen outside area of treatment
Protocol: 13-16 day old Beefsteak Tomato seedlings were treated with solutions of HYVAR herbicides [5-bromo-6-methyl-3-(1-methylpropyl)-2,4-(1H,3H)-pyrimidinedione] and GC219. Solutions of Hyvar and GC219 were made up on DI H2 O and 1% ethanol and adjusted with 0.1N HCL to a final pH of 4.0. 10 ul of solution was applied to each cotyledon and 15 ul to each secondary pentafoliate leaflet. 10 tomato seedlings were used for each test solutions. Observations were made daily after treatment for 4 days.
HYVAR herbicide [5-bromo-6-methyl-3-(1-methylpropyl)-2,4-(1H,3H)-pyrimidinedione] was diluted 1:200 or 1:400 for each experiment.

[2] = system: Giant Fox Tail; experiment: Greenhouse multispecies herbicide screen with/without P. mendocina enzyme
Protocol: (§1) Several plant species including weeds and crops are used in these experiments.
A number of herbicides from various chemical classes were compared in a multispecies screen for percent chlorosis, necrosis and vigor reduction both with and without application of the enzyme from Pseudomonas mendocina ATCC 53552 described earlier. […] Two different enzyme concentrations were used: 0.5 mg/ml (HE) and 0.05 mg/ml (LE) and applied at the rate of 40 gallons/acre. All spraying solutions were at pH 10 and contained 100 mm sodium phosphate each. Ratings were done at 6 and 12 days after the treatment. All the experiments were carried out in a greenhouse.
(§2) Chlorosis--figures represent percent of plants showing chlorosis.
(§3) Necrosis--figures represent percent of plants showing necrosis.
(§4) Vigor--figures represent percent of plants showing decreased vigor.
(§5) Phytotoxicity--figures represent the average percent of chlorosis, necrosis, and vigor for a given sample.

[3] = system: Alfalfa; experiment: as above
Protocol: as §1
(§6) A number of herbicides from various chemical classes were compared in a multispecies screen for percent chlorosis, necrosis and vigor reduction both with and without application of the enzyme from Pseudomonas mendocina ATCC 53552 described earlier. […] Two different enzyme concentrations were used: 0.5 mg/ml (HE) and 0.05 mg/ml (LE) and applied at the rate of 40 gallons/acre. All spraying solutions were at pH 10 and contained 100 mm sodium phosphate each. […] All the experiments were carried out in a greenhouse.
as §2, §3, §4, §5

[4] = system: Barnyard Grass; experiment: as above
Protocol: as §1, §6, §2, §3, §4, §5

[5] = HYVAR 10% dose, High Enzyme, one week after treatment
[6] = HYVAR 10% dose, Low Enzyme, one week after treatment
[7] = HYVAR 10% dose, No Enzyme, one week after treatment
[8] = HYVAR 18%, High Enzyme, two weeks after treatment
[9] = HYVAR 18%, Low Enzyme, two weeks after treatment
[10] = HYVAR 18%, No Enzyme, two weeks after treatment
[11] = HYVAR 40% dose, High Enzyme, one week after treatment
[12] = HYVAR 40% dose, Low Enzyme, one week after treatment
[13] = HYVAR 40% dose, No Enzyme, one week after treatment
[14] = HYVAR 100% dose, No Enzyme, one week after treatment

Compound: CCC(C)n1c(=O)[nH]c(C)c(Br)c1=O (stereo not shown) [HYVAR, 5-bromo-6-methyl-3-(1-methylpropyl)-2,4-(1H,3H)-pyrimidinedione]
- PHYTOTOXICITY RATING ([1]; HYVAR (1:400 dilution), Day 2): -
- PHYTOTOXICITY RATING ([1]; HYVAR (1:400 dilution), Day 3): -
- PHYTOTOXICITY RATING ([1]; HYVAR alone (1:200 dilution), Day 1): -
- PHYTOTOXICITY RATING ([1]; HYVAR alone (1:200 dilution), Day 2): +
- PHYTOTOXICITY RATING ([1]; first experiment (1:200), HYVAR + 6.28 mg/ml GC219, Day 1): +
- PHYTOTOXICITY RATING ([1]; first experiment (1:200), HYVAR + 6.28 mg/ml GC219, Day 2): ++
- PHYTOTOXICITY RATING ([1]; second experiment (1:400), HYVAR + 6.28 mg/ml GC219, Day 2): +
- PHYTOTOXICITY RATING ([1]; second experiment (1:400), HYVAR + 6.28 mg/ml GC219, Day 3): ++
- PHYTOTOXICITY RATING ([1]; second experiment (1:400), HYVAR + 12.6 mg/ml GC219, Day 2): ++
- PHYTOTOXICITY RATING ([1]; second experiment (1:400), HYVAR + 12.6 mg/ml GC219, Day 3): ++
- CHL (chlorosis) [2, 5]: 18%
- NEC (necrosis) [2, 5]: 18%
- PHY (phytotoxicity) [2, 5]: 22%
- VIG (vigor) [2, 5]: 30%
- CHL (chlorosis) [2, 6]: 50%
- NEC (necrosis) [2, 6]: 30%
- PHY (phytotoxicity) [2, 6]: 43%
- VIG (vigor) [2, 6]: 50%
- CHL (chlorosis) [2, 7]: 40%
- NEC (necrosis) [2, 7]: 30%
- PHY (phytotoxicity) [2, 7]: 40%
- VIG (vigor) [2, 7]: 50%
- NEC (necrosis) [2, 8]: 75%
- PHY (phytotoxicity) [2, 8]: 75%
- VIG (vigor) [2, 8]: 75%
- CHL (chlorosis) [2, 9]: 73%
- PHY (phytotoxicity) [2, 9]: 73%
- CHL (chlorosis) [2, 10]: 65%
- NEC (necrosis) [2, 10]: 63%
- PHY (phytotoxicity) [2, 10]: 64%
- VIG (vigor) [2, 10]: 63%
- CHL (chlorosis) [2, 11]: 38%
- NEC (necrosis) [2, 11]: 50%
- PHY (phytotoxicity) [2, 11]: 30%
- VIG (vigor) [2, 11]: 63%
- CHL (chlorosis) [2, 12]: 43%
- NEC (necrosis) [2, 12]: 65%
- PHY (phytotoxicity) [2, 12]: 57%
- VIG (vigor) [2, 12]: 63%
- CHL (chlorosis) [2, 13]: 50%
- NEC (necrosis) [2, 13]: 38%
- PHY (phytotoxicity) [2, 13]: 48%
- VIG (vigor) [2, 13]: 55%
- CHL (chlorosis) [2, 14]: 60%
- NEC (necrosis) [2, 14]: 60%
- PHY (phytotoxicity) [2, 14]: 65%
- VIG (vigor) [2, 14]: 75%
- CHL (chlorosis) [3, 5]: 18%
- NEC (necrosis) [3, 5]: 0%
- PHY (phytotoxicity) [3, 5]: 10%
- VIG (vigor) [3, 5]: 10%
- CHL (chlorosis) [3, 6]: 50%
- NEC (necrosis) [3, 6]: 5%
- PHY (phytotoxicity) [3, 6]: 28%
- VIG (vigor) [3, 6]: 30%
- CHL (chlorosis) [3, 7]: 10%
- NEC (necrosis) [3, 7]: 5%
- PHY (phytotoxicity) [3, 7]: 8%
- VIG (vigor) [3, 7]: 10%
- CHL (chlorosis) [3, 8]: 100%
- NEC (necrosis) [3, 8]: 100%
- PHY (phytotoxicity) [3, 8]: 100%
- VIG (vigor) [3, 8]: 100%
- CHL (chlorosis) [3, 9]: 100%
- NEC (necrosis) [3, 9]: 100%
- PHY (phytotoxicity) [3, 9]: 100%
- VIG (vigor) [3, 9]: 100%
- CHL (chlorosis) [3, 10]: 55%
- NEC (necrosis) [3, 10]: 58%
- PHY (phytotoxicity) [3, 10]: 57%
- VIG (vigor) [3, 10]: 58%
- CHL (chlorosis) [3, 11]: 30%
- NEC (necrosis) [3, 11]: 13%
- PHY (phytotoxicity) [3, 11]: 24%
- VIG (vigor) [3, 11]: 30%
- CHL (chlorosis) [3, 12]: 30%
- NEC (necrosis) [3, 12]: 30%
- PHY (phytotoxicity) [3, 12]: 37%
- VIG (vigor) [3, 12]: 50%
- CHL (chlorosis) [3, 13]: 25%
- NEC (necrosis) [3, 13]: 5%
- PHY (phytotoxicity) [3, 13]: 15%
- VIG (vigor) [3, 13]: 15%
- CHL (chlorosis) [3, 14]: 50%
- NEC (necrosis) [3, 14]: 10%
- PHY (phytotoxicity) [3, 14]: 37%
- VIG (vigor) [3, 14]: 50%
- CHL (chlorosis) [4, 5]: 25%
- NEC (necrosis) [4, 5]: 10%
- PHY (phytotoxicity) [4, 5]: 28%
- VIG (vigor) [4, 5]: 50%
- CHL (chlorosis) [4, 6]: 50%
- NEC (necrosis) [4, 6]: 18%
- PHY (phytotoxicity) [4, 6]: 39%
- VIG (vigor) [4, 6]: 50%
- CHL (chlorosis) [4, 7]: 30%
- NEC (necrosis) [4, 7]: 25%
- PHY (phytotoxicity) [4, 7]: 28%
- VIG (vigor) [4, 7]: 30%
- CHL (chlorosis) [4, 8]: 95%
- NEC (necrosis) [4, 8]: 88%
- PHY (phytotoxicity) [4, 8]: 90%
- VIG (vigor) [4, 8]: 88%
- CHL (chlorosis) [4, 9]: 88%
- NEC (necrosis) [4, 9]: 85%
- PHY (phytotoxicity) [4, 9]: 86%
- VIG (vigor) [4, 9]: 85%
- CHL (chlorosis) [4, 10]: 85%
- NEC (necrosis) [4, 10]: 78%
- PHY (phytotoxicity) [4, 10]: 80%
- VIG (vigor) [4, 10]: 78%
- CHL (chlorosis) [4, 11]: 55%
- NEC (necrosis) [4, 11]: 50%
- PHY (phytotoxicity) [4, 11]: 45%
- VIG (vigor) [4, 11]: 30%
- CHL (chlorosis) [4, 12]: 55%
- NEC (necrosis) [4, 12]: 60%
- PHY (phytotoxicity) [4, 12]: 59%
- VIG (vigor) [4, 12]: 63%
- CHL (chlorosis) [4, 13]: 65%
- NEC (necrosis) [4, 13]: 30%
- PHY (phytotoxicity) [4, 13]: 50%
- VIG (vigor) [4, 13]: 55%
- CHL (chlorosis) [4, 14]: 50%
- NEC (necrosis) [4, 14]: 60%
- PHY (phytotoxicity) [4, 14]: 62%
- VIG (vigor) [4, 14]: 75%
